Source: publication PMC3263372 (Chembiochem, 2011)
Entries after “also recorded” stand apart in the source; their conditions may differ. Square brackets hold non-standard residues; d marks the D form. Peptide text beside a SMILES is read from it. β3hW = N[C@H](CC(=O)O)Cc1c[nH]c2ccccc12; β3hR = N=C(N)NCCC[C@H](N)CC(=O)O; β3hE = N[C@@H](CCC(=O)O)CC(=O)O; β3hQ = NC(=O)CC[C@H](N)CC(=O)O; β3hD = NC(CC(=O)O)CC(=O)O; β3hA = C[C@H](N)CC(=O)O

Experiments:
Mcl-1 = Mcl-1 (Homo sapiens, UniProt Q07820, A193S/E173D/K208R/M199L/R201E/S202A/S206G/T196S/T205A); assay: Solution competition SPR; format: binding, human/mouse chimeric; conditions: for affinity for Mcl-1: SPR, in words
Chain of Mcl-1 (Q07820 171-327 E173D/A193S/T196S/M199L/R201E/S202A/T205A/S206G/K208R limits assumed): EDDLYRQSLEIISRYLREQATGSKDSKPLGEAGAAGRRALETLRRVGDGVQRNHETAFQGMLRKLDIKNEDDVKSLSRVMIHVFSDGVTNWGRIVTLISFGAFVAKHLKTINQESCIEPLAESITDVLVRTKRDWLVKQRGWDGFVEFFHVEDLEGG

Bcl-xL [1] = biological target: T1, Bcl-xL (Homo sapiens, UniProt Q07817); assay: Solution competition SPR; format: binding; conditions: for affinity for Bcl-xL: SPR, in words
T1 sequence (Q07817 1-209 limits assumed): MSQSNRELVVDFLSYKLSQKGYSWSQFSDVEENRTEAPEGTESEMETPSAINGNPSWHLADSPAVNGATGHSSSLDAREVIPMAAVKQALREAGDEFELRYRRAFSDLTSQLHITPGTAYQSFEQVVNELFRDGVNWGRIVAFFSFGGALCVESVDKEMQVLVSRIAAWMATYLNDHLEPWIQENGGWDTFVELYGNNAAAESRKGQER

Bcl-w = biological target: T2, Bcl-w (Homo sapiens, UniProt Q92843, A128E/C29S); assay: Solution competition SPR; format: binding
T2 sequence (Q92843 1-164 C29S/A128E limits assumed): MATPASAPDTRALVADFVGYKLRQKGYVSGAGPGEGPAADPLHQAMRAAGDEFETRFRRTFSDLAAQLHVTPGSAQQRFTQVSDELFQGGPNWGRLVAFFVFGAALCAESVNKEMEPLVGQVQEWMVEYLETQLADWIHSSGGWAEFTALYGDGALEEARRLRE

Bcl-2 = Bcl-2 (Homo sapiens, UniProt P10415); assay: Solution competition SPR; format: binding
Chain of Bcl-2 (P10415 1-217 limits assumed, species assumed): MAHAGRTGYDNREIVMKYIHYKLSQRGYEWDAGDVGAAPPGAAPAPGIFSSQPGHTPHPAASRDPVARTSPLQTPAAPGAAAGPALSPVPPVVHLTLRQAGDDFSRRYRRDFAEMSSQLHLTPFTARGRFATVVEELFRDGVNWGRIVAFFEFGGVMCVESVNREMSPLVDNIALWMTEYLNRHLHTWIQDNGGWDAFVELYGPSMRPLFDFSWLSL

pro-survival proteins = conditions: ref [37]; cited from earlier work
[2] = ref [14]; cited from earlier work
Bcl-xL [3] = biological target: T1, Bcl-xL; conditions: preliminary studies; ref [14]; cited from earlier work

| SMILES | affinity for Mcl-1 (Mcl-1) | affinity for Bcl-xL (Bcl-xL [1]) | IC50 (Bcl-w) [µM] | IC50 (Mcl-1) [µM] | IC50 (Bcl-xL [1]) [µM] | IC50 (Bcl-2) [µM] | binding to all pro-survival proteins (pro-survival proteins) | resistance to proteolytic degradation [2] | binding to Bcl-xL (Bcl-xL [3]) |
| --- | --- | --- | --- | --- | --- | --- | --- | --- | --- |
| CC[C@H](C)[C@H](NC(=O)C[C@H](CCC(=O)O)NC(=O)[C@H](CCCNC(=N)N)NC(=O)[C@H](C)NC(=O)C[C@H](Cc1c[nH]c2ccccc12)NC(C)=O)C(=O)NCC(=O)N[C@@H](C)C(=O)N[C@@H](CCC(N)=O)CC(=O)N[C@@H](CC(C)C)C(=O)N[C@@H](CCCNC(=N)N)C(=O)N[C@@H](CCCNC(=N)N)CC(=O)N[C@@H](CCSC)C(=O)N[C@@H](C)C(=O)N[C@@H](CC(=O)O)C(=O)N[C@@H](CC(=O)O)CC(=O)N[C@@H](CC(C)C)C(=O)N[C@@H](CC(N)=O)C(=O)N[C@@H](C)CC(=O)N[C@@H](CCC(N)=O)C(=O)N[C@@H](Cc1ccc(O)cc1)C(=O)N[C@@H](CCC(=O)O)C(N)=O [α/β-peptide 3] (Ac-[β3hW]AR[β3hE]IGA[β3hQ]LR[β3hR]MAD[β3hD]LN[β3hA]QYE-NH2; N-terminus assumed) | low affinity | high affinity |  |  |  |  |  |  |  |
| CC[C@H](C)[C@H](NC(=O)[C@H](CCC(=O)O)NC(=O)[C@H](CCCNC(=N)N)NC(=O)[C@H](C)NC(=O)[C@H](Cc1c[nH]c2ccccc12)NC(=O)[C@H](CCC(N)=O)NC(=O)[C@H](CCC(=O)O)NC(=O)[C@H](CCC(=O)O)NC(C)=O)C(=O)NCC(=O)N[C@@H](C)C(=O)N[C@@H](CCC(N)=O)C(=O)N[C@@H](CC(C)C)C(=O)N[C@@H](CCCNC(=N)N)C(=O)N[C@@H](CCCNC(=N)N)C(=O)N[C@@H](CCSC)C(=O)N[C@@H](C)C(=O)N[C@@H](CC(=O)O)C(=O)N[C@@H](CC(=O)O)C(=O)N[C@@H](CC(C)C)C(=O)N[C@@H](CC(N)=O)C(=O)N[C@@H](C)C(=O)N[C@@H](CCC(N)=O)C(=O)N[C@@H](Cc1ccc(O)cc1)C(=O)N[C@@H](CCC(=O)O)C(=O)N[C@@H](CCCNC(=N)N)C(=O)N[C@@H](CCCNC(=N)N)C(N)=O [α-peptide 1] |  |  | 0.013 | 0.01 | 0.018 | 0.005 | promiscuous binder capable of engaging all pro-survival proteins with high affinity |  |  |
| CC[C@H](C)[C@H](NC(=O)C[C@H](CCC(=O)O)NC(=O)[C@H](CCCNC(=N)N)NC(=O)[C@H](C)NC(=O)C[C@H](Cc1c[nH]c2ccccc12)NC(=O)[C@H](CCC(N)=O)NC(=O)[C@H](CCC(=O)O)NC(=O)[C@H](CCC(=O)O)NC(C)=O)C(=O)NCC(=O)N[C@@H](C)C(=O)N[C@@H](CCC(N)=O)CC(=O)N[C@@H](CC(C)C)C(=O)N[C@@H](CCCNC(=N)N)C(=O)N[C@@H](CCCNC(=N)N)CC(=O)N[C@@H](CCSC)C(=O)N[C@@H](C)C(=O)N[C@@H](CC(=O)O)C(=O)N[C@@H](CC(=O)O)CC(=O)N[C@@H](CC(C)C)C(=O)N[C@@H](CC(N)=O)C(=O)N[C@@H](C)CC(=O)N[C@@H](CCC(N)=O)C(=O)N[C@@H](Cc1ccc(O)cc1)C(=O)N[C@@H](CCC(=O)O)C(=O)N[C@@H](CCCNC(=N)N)CC(=O)N[C@@H](CCCNC(=N)N)C(N)=O [α/β-peptide 2] | does not bind tightly to Mcl-1; also recorded: low affinity; also recorded: relatively weak binding | strong binding; also recorded: high affinity |  |  |  |  |  | significant resistance to proteolytic degradation | bound tightly |
